Measured values from patent US20250090658A1, “POLYMER ADJUVANT” (Oxford University Innovation Limited, priority 2014, published 2025).
Entries after “also recorded” stand apart in the source; their conditions may differ.

Experiments:
hTLR7 = target: T1, hTLR7 (Homo sapiens, UniProt Q9NYK1); assay: HEK293 hTLR7 reporter cell assay (absorbance at 405 nm); type: cell-based; conditions: HEK293 hTLR7 reporter cells
T1 construct: expressed in transfected cells; host or cells: HEK293
T1 sequence (Q9NYK1 27-1049): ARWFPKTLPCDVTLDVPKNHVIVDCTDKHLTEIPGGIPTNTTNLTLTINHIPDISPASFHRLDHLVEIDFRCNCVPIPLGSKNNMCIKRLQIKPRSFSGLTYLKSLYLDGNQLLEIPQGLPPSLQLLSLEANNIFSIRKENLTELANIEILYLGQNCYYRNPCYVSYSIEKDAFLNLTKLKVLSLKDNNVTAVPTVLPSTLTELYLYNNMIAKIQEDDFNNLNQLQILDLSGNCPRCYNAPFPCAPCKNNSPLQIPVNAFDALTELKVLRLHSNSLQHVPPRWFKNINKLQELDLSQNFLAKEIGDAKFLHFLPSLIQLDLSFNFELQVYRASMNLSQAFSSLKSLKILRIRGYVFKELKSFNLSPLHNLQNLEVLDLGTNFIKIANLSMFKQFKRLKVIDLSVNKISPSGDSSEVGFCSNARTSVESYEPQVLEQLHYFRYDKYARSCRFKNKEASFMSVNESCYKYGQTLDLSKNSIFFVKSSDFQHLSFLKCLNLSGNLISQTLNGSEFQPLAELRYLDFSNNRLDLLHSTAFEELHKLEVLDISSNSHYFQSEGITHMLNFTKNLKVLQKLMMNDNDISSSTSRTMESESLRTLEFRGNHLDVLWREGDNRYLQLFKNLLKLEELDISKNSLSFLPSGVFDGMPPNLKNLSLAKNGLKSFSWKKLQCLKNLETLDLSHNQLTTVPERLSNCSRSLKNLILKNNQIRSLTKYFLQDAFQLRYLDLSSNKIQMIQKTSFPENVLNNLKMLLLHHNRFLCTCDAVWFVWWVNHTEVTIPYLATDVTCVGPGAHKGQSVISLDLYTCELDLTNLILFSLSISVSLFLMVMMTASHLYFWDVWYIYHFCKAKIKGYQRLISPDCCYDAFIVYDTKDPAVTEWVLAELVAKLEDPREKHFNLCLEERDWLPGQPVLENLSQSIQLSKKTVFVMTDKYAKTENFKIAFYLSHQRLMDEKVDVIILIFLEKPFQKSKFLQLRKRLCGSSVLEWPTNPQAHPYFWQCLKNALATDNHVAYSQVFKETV
Method: FIG. 6: Combinatorial synthesis was used to generate diverse arrays of Poly-7/8a. […] The potency of these two TLR-7/8a was evaluated in vitro using HEK293 hTLR7 reporter cells; absorbance at 405 nm is proportional to TLR7 binding. (b) A combinatorial library of Poly-7/8a was generated by attaching 2 unique TLR-7/8a (SM 7/8a or SM 20×7/8a) to reactive HPMA-based copolymers at different densities (˜2,4, 8 mol %) using either a short, alkane or PEG linker. By reacting 2 unique TLR-7/8a, at 3 different densities, using 3 different linkers, there are 18 unique products that can be generated, as illustrated (c). Note that this cartoon representation is for illustrative purposes; not all Poly-7/8a represented in this schematic were evaluated in this study, nor does this schematic represent all the materials described herein.

[1] = Biodistribution and kinetics of dye-labeled materials after subcutaneous administration (X-ray and epifluorescence imaging); type: in vivo, mice
Excerpt: (§1) FIG. 9: Morphology of the carrier and TLR-7/8a agonist density, dose and potency independently influence the magnitude and spatiotemporal characteristics of innate immune activation. (a-g) To facilitate in vivo tracking, dye-labeled Poly-7/8a (PP-7/8a^Hi, PP-7/8a^Lo, PC-7/8a^Lo) (Note PP-7/8a^Hi=10 mol % and PP-7/8a^Lo=3 mol %) and small molecule TLR-7/8a normalized for TLR-7/8a dose (12.5 nmol), and controls, were delivered subcutaneously to the left footpad of mice. (a, b) mice (n=3) that received IR-dye labeled materials were imaged by dual modality X-ray and epifluorescence spectroscopy; (a) Representative images illustrating biodistribution over the first 2 days; (b) Kinetics of the different constructs in the popliteal lymph node. (c-e) Draining lymph nodes (n=3) were harvested at serial timepoints and evaluated by flow cytometry. […] Total CD11c^+ DC were evaluated for (d) adjuvant uptake (% Ax488^+), (e,f) relative adjuvant uptake per cell (Ax488 MFI; note that PP-7/8a^Lo and PC-7/8a^Lo are matched for TLR-7/8a density and dose), (g) magnitude and (h) activation (CD80 co-stimulatory molecule expression). (i) IL-12p40 was measured from the supernatant of ex vivo lymph node cultures. […] At day 28, tetramer+CD8 T cell responses were evaluated from whole blood. […] (n) Total IgG antibody titers and the ratio of IgG1/IgG2c antibody endpoint titers were evaluated from sera on day 28.

CD11c+ DC = assay: DC recruitment and activation (CD80) in draining lymph nodes; type: in vivo, mice; conditions: TLR-7/8a dose 12.5 nmol, subcutaneous
Excerpt: as §1

serum IL-12p40 and IP-10 = assay: Serum (systemic) cytokines after subcutaneous administration (ELISA); type: in vivo, C57/BL6 mice
Excerpt: as §1, with “(a, b) mice (n=3) that received IR-dye labeled materials were imaged by dual modality X-ray and epifluorescence spectroscopy; (a) Representative images illustrating biodistribution over the first 2 days; (b) Kinetics of the different constructs in the popliteal lymph node.” left out
FIG. 10: Persistent local innate immune by particulate Poly-7/8a (PP-7/8a) activation is necessary and sufficient for inducing protective CD8 T cell responses. […] (b) Serum (n=3-5) was assessed for IL-12p40 by ELISA at serial timepoints. […]

Th1 CD4 T cells = assay: MML immunization, antigen-specific Th1 cytokine producing CD4 T cells in splenocytes; type: in vivo, C57/BL6 mice; conditions: 20 μg MML, days 0, 21 and 42
Method: FIG. 11: Particulate Poly-7/8a induce Th1 CD4 T cells that mediate protection against Leishmania major. C57/BL6 mice received subcutaneous immunizations of 20 μg of MML protein either alone, or formulated with an adjuvant, on days 0, 21 and 42. (a) Splenocytes were isolated on day 70 and stimulated in vitro with MML peptide pool. Antigen-specific cytokine producing CD4 T cells in the mixed splenocyte cultures were quantified by flow cytometry (n=5) for their capacity to produce Th1 characteristic cytokines (IFNγ, IL-2 and TNFα). (b) Mice (n=6) were challenged intradermally in both ears with L major at day 70. Ear lesion diameters were measured for 12 weeks.

[2] = Body weight change after subcutaneous adjuvant administration; type: in vivo, C57/BL6 mice
Method: FIG. 10: Persistent local innate immune by particulate Poly-7/8a (PP-7/8a) activation is necessary and sufficient for inducing protective CD8 T cell responses. (a-c) CpG (20 μg), R848 (62.5 nmol) or PP-7/8a^Hi (62.5 nmol) were delivered subcutaneously into both hind footpads of C57/BL6 mice. (a) Supernatant of ex vivo cultured lymph node cell suspensions (n=4) were evaluated for IL-12p40 by ELISA at serial timepoints. (b) Serum (n=3-5) was assessed for IL-12p40 by ELISA at serial timepoints. (c) Percent body weight change (n=3) following subcutaneous administration of different vaccine adjuvants. (d) A model for understanding the relationship between biodistribution and local and systemic innate immune activation. (e, f) C57/BL6 mice (n=6) received a single subcutaneous footpad injection of 50 μg of OVA formulated with adjuvant at days 0 and 14. (e) At day 25, tetramer^+ CD8 T cell responses from whole blood were evaluated by flow cytometry. (f) Mice (n=6) were challenged intravenously at day 28 with LM-OVA and bacterial burden in the spleens was evaluated on day 31. (g, h) Immunogenicity experiments were repeated using SIV Gag p41 in place of OVA.

[3] = Particle formation and size in aqueous solution by (dynamic) light scattering; type: physicochemical; conditions: 0.1 mg/mL PBS
Excerpt: FIG. 7: In vivo screening of a combinatorial library of Poly-7/8a yields structure-activity insights. (a) Lymph node (n=4) IL-12p40 induced by a combinatorial library of Poly-7/8a. (b) Influence of TLR-7/8a density on lymph node (n=6) IL-12p40 and IP-10 levels (left y-axis, line graphs) and particle size assessed by dynamic light scattering (right y-axis, bar graph). (c) Cryo-electron microscopy of selected samples is shown for illustrative purposes. […] SM=small molecule; PC=polymer coil; PP=polymer particle.
FIG. 8: Increasing density of agonists on polymers results in an increased tendency of Poly-7/8a to form particles in aqueous solutions and is associated with enhanced local innate immune activity. (b) Negative control polymers were generated using aminopyridine (AP) to account for the contribution of the aromatic amine present on the imidazoquinoline based TLR-7/8a used in this study. AP was attached to polymers either through a PEG or amphiphilic (AMPH) spacer. […] 24 h after administration, supernatant of overnight lymph node cell suspensions were assessed for IFNα (d) or IFNγ (e) by ELISA. (f-g) Lymph nodes were isolated from wild type (WT), TLR-7 knockout or Caspase 1/11 (inflammasome) knockout mice 24 h after subcutaneously administering Poly-7/8a^10%; culture supernatants were evaluated for IP-10 and IL-12 by ELISA.

Compound: CCCCc1nc2c(N)nc3ccccc3c2n1Cc1ccc(CN)cc1 [SM 20×7/8a, 1-(4-(aminomethyl)benzyl)-2-butyl-1H-imidazo[4,5-c]quinolin-4-amine]
- potency relative to SM 7/8a (hTLR7): ~20 fold

Compound: CCOCc1nc2c(N)nc3ccccc3c2n1CCCCN [SM 7/8a, 1-(4-aminobutyl)-2-(ethoxymethyl)-1H-imidazo[4,5-c]quinolin-4-amine]
- time after which undetectable [1]: ≤ 1 days
- biodistribution / retention ([1]; normalized for TLR-7/8a dose): distributed systemically
- DC recruitment, activation and cytokine production in draining lymph nodes (CD11c+ DC): limited lymph node responses
- serum cytokines (serum IL-12p40 and IP-10; TLR-7/8a dose 12.5 nmol, local (subcutaneous) administration): high levels of serum cytokines
- Th1-type CD4 cell responses (Th1 CD4 T cells): equivalent to MML administered alone

Compound: CCOCc1nc2c(N)nc3ccccc3c2n1CC(C)(C)O [R848]
- systemic (sera) cytokines (serum IL-12p40 and IP-10; CpG 20 μg, R848 62.5 nmol, PP-7/8a^Hi 62.5 nmol, subcutaneous): only induced systemic (sera) cytokines; also recorded: high levels of transient systemic cytokine production
- mouse body weight [2]: transient decreases in mouse body weight

Compound: p[(HPMA)-co-(Ma-β-Ala-PEG-Pam2Cys)] [Poly-PEG-Pam2Cys]
- z-average diameter [3]: 2,744±384.8 nm
